Key:
[1] = tested on: Major depression disorder in Wistar rats; assay: Open field test (ambulatory behavior) in Reserpine-induced major depression disorder; assay type: in vivo; conditions: 6 minute session, Reserpine induced, oral daily 7 days, mean ± SEM, n = 6
[2] = tested on: Major depression disorder in Wistar rats; assay: Forced swim test in Reserpine-induced major depression disorder; assay type: in vivo; conditions: forced swim test 5 min, Reserpine 1.0 mg/kg induced, oral daily 7 days, mean ± SEM, n = 6

With `CN(C)CCC[C@@]1(c2ccc(F)cc2)OCc2cc(C#N)ccc21` [Escitalopram, reference compound] the “No. of open arm entries (Open field test)” value [1] was 47.83 ± 0.60, the Climbing [2] was 20.17 ± 0.87 and the Immobility [2] was 91.67 ± 0.80. The “Total time spent in active swimming” value [2] was 208.33 ± 0.80 s.
